# Assay results taken from patent publication US6087119A, “Method for determining the catalytic activity of factor IXa” (Roche Diagnostics GmbH, priority 1996, dated 2000).
# Legend:
# rFIXa (human) [1] = target: T1, rFIXa (human) (Homo sapiens, UniProt P00740); assay: Influence of alcohols and organic solvents on the activity of rFIXa, chromogenic peptide substrates; assay type: biochemical; parameters: coding for the FIX protease domain from amino acid position 181 to 415; Met (ATG start codon) (N); made in house; conditions: for V/V0: MeSO2-D-HHT-Gly-Arg-pNA 1.02 mmol/l, 0.48 μmol/l rFIXa; for V/V0 / effect on the activity of rFIXa (in words): pH 7.4; for effect on the activity of rFIXa (in words): additive 0-50%, MeSO2-D-HHT-Gly-Arg-pNA
# Description: The reaction was started by adding FIXa.
# MeSO2 -D-HHT-Gly-Arg-pNA→MeSO2 -D-HHT-Gly-Arg+pNA measurement signal: pNA
# 0.48 μmol/l rFIXa (human)
# 0-50% (alcohol or organic solvent)
# The ratio V/V0 was calculated to illustrate the stimulation of the catalytic activity of rFIXa.
# V0, reaction rate without additives
# V, reaction rate in the presence of additives
# Test Mixture Chromogenic (Concentration in the Test)
# Target sequence in this assay (P00740 227-461 limits assumed): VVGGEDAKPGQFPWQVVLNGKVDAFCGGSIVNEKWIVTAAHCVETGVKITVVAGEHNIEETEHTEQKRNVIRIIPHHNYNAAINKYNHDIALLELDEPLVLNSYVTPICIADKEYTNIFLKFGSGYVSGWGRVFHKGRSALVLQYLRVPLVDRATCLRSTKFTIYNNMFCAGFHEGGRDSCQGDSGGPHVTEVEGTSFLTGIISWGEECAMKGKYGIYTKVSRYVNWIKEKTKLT
# Target sequence in this assay (P00740 131-226 partner limits assumed): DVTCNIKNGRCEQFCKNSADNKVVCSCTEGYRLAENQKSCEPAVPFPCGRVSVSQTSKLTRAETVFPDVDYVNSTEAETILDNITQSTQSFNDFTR
# rFIXa (human) [2] = target: T1, rFIXa (human); assay: Influence of known protease inhibitors on the activity of rFIXa; assay type: biochemical; parameters: coding for the FIX protease domain from amino acid position 181 to 415; Met (ATG start codon) (N); made in house
# Description: Specific FIXa inhibitors can be identified by the inhibition of FIXa activity. For this purpose the FIXa activity is determined with a substrate of the R-D-Xxx-Gly-Arg-pNA type (Xxx=hydrophobic amino acid) in the absence and presence of the substance to be tested or of a substance mixture and the percentage inhibition is calculated from the quotients. The inhibition constant Ki is determined from the inhibition kinetics. The measurement signal is amplified by the presence of high concentrations of certain alcohols (preferably ethylene glycol).
# 200 μl buffer (100 mmol/l Tris-HCl, 100 mmol/l NaCl, 5 mmol/l CaCl2, 20-40% alcohol, pH 7-9) the buffer contains the inhibitor at various concentrations […]
# The reaction can also be terminated after 5-10 min by stopping with acetic acid (25 μl, 50%), the absorbance is determined at 405 nm against a reagent blank.
# Influence of Known Protease Inhibitors on the Activity of rFIXa Using Different pHs, Alcohols and Alcohol Concentrations 42 mmol/l Tris-HCl, pH 7.4 or 8.5 substrate MeSO2 -D-CHG-Gly-Arg-pNA (1.02 mmol/l) […]
# inhibitor at stepped concentrations (4.1-163 μmol/l)
# Known synthetic inhibitors of the 3-amidinophenylalanine type were used as inhibitors (Sturzebecher et al, J. Enzyme. Inhibition 9 (1995) 87 and WO 92/08709) (1991)). The inhibitory effect was examined at a low and at a high alcohol concentration as an example.
# Target sequence in this assay (P00740 227-461 limits assumed): as the sequence (P00740 227-461 limits assumed) above
# Target sequence in this assay (P00740 131-226 limits assumed): as the sequence (P00740 131-226 partner limits assumed) above
structure (smiles),measurement,setting,value
"C[S+](C)[O-] [DMSO, dimethylsulfoxide]",V/V0,rFIXa (human) [1]; 8% additive,1.27
same,V/V0,rFIXa (human) [1]; 16% additive,1.45
same,V/V0,rFIXa (human) [1]; 25% additive,1.59
same,V/V0,rFIXa (human) [1]; 33% additive,1.43
same,V/V0,rFIXa (human) [1]; 41% additive,0.922
same,V/V0,rFIXa (human) [1]; 50% additive,0.157
same,effect on the activity of rFIXa (in words),rFIXa (human) [1],does not inhibit rFIXa up to 30%
CCCO [n-Propanol],V/V0,rFIXa (human) [1]; 8% additive,3.43
same,V/V0,rFIXa (human) [1]; 16% additive,2.26
same,V/V0,rFIXa (human) [1]; 25% additive,0.339
same,V/V0,rFIXa (human) [1]; 33% additive,0.186
same,V/V0,rFIXa (human) [1]; 41% additive,0.056
same,V/V0,rFIXa (human) [1]; 50% additive,0.056
CC#N [Acetonitrile],V/V0,rFIXa (human) [1]; 8% additive,0.828
same,V/V0,rFIXa (human) [1]; 16% additive,0.314
same,V/V0,rFIXa (human) [1]; 25% additive,0
same,V/V0,rFIXa (human) [1]; 33% additive,0
same,V/V0,rFIXa (human) [1]; 41% additive,0
same,V/V0,rFIXa (human) [1]; 50% additive,0
same,effect on the activity of rFIXa (in words),rFIXa (human) [1],inactivate the enzyme
"N=C(N)c1cccc(CC(NS(=O)(=O)c2ccc3ccccc3c2)C(=O)N2Cc3ccccc3CC2C(=O)O)c1 (stereo not shown) [βNAPS-(3-Am)Phe-TIC-OH, Nα-(2-naphthylsulfonyl)-3-amidino-(D,L)-phenylalanine-1,2,3,4-tetrahydroisoquinoline-3-carboxylic acid]",Inhibition of the activity of factor IXa (in %),"rFIXa (human) [2]; inhibitor 4.1 μmol/l, pH 7.4, 4.1% ethanol, 0.57 μmol/l rFIXa",97.2%
same,Inhibition of the activity of factor IXa (in %),"rFIXa (human) [2]; inhibitor 4.1 μmol/l, pH 7.4, 33% ethylene glycol, 0.057 μmol/l rFIXa",100%
same,Inhibition of the activity of factor IXa (in %),"rFIXa (human) [2]; inhibitor 4.1 μmol/l, pH 8.5, 4.1% ethanol, […] rFIXa",100%
same,Inhibition of the activity of factor IXa (in %),"rFIXa (human) [2]; inhibitor 4.1 μmol/l, pH 8.5, 33% ethylene glycol, […] rFIXa",100%
same,Inhibition of the activity of factor IXa (in %),"rFIXa (human) [2]; inhibitor 8.2 μmol/l, pH 7.4, 4.1% ethanol, 0.57 μmol/l rFIXa",97.2%
same,Inhibition of the activity of factor IXa (in %),"rFIXa (human) [2]; inhibitor 8.2 μmol/l, pH 7.4, 33% ethylene glycol, 0.057 μmol/l rFIXa",100%
same,Inhibition of the activity of factor IXa (in %),"rFIXa (human) [2]; inhibitor 8.2 μmol/l, pH 8.5, 4.1% ethanol, […] rFIXa",96.2%
same,Inhibition of the activity of factor IXa (in %),"rFIXa (human) [2]; inhibitor 8.2 μmol/l, pH 8.5, 33% ethylene glycol, […] rFIXa",97.9%
same,Inhibition of the activity of factor IXa (in %),"rFIXa (human) [2]; inhibitor 16.3 μmol/l, pH 7.4, 4.1% ethanol, 0.57 μmol/l rFIXa",88.2%
same,Inhibition of the activity of factor IXa (in %),"rFIXa (human) [2]; inhibitor 16.3 μmol/l, pH 7.4, 33% ethylene glycol, 0.057 μmol/l rFIXa",85.4%
same,Inhibition of the activity of factor IXa (in %),"rFIXa (human) [2]; inhibitor 16.3 μmol/l, pH 8.5, 4.1% ethanol, […] rFIXa",86.2%
same,Inhibition of the activity of factor IXa (in %),"rFIXa (human) [2]; inhibitor 16.3 μmol/l, pH 8.5, 33% ethylene glycol, […] rFIXa",88.4%
same,Inhibition of the activity of factor IXa (in %),"rFIXa (human) [2]; inhibitor 40.8 μmol/l, pH 7.4, 4.1% ethanol, 0.57 μmol/l rFIXa",75.4%
same,Inhibition of the activity of factor IXa (in %),"rFIXa (human) [2]; inhibitor 40.8 μmol/l, pH 7.4, 33% ethylene glycol, 0.057 μmol/l rFIXa",62.6%
same,Inhibition of the activity of factor IXa (in %),"rFIXa (human) [2]; inhibitor 40.8 μmol/l, pH 8.5, 4.1% ethanol, […] rFIXa",77.5%
same,Inhibition of the activity of factor IXa (in %),"rFIXa (human) [2]; inhibitor 40.8 μmol/l, pH 8.5, 33% ethylene glycol, […] rFIXa",78.4%
same,Inhibition of the activity of factor IXa (in %),"rFIXa (human) [2]; inhibitor 81.6 μmol/l, pH 7.4, 4.1% ethanol, 0.57 μmol/l rFIXa",57.0%
same,Inhibition of the activity of factor IXa (in %),"rFIXa (human) [2]; inhibitor 81.6 μmol/l, pH 7.4, 33% ethylene glycol, 0.057 μmol/l rFIXa",41.0%
same,Inhibition of the activity of factor IXa (in %),"rFIXa (human) [2]; inhibitor 81.6 μmol/l, pH 8.5, 4.1% ethanol, […] rFIXa",63.8%
same,Inhibition of the activity of factor IXa (in %),"rFIXa (human) [2]; inhibitor 81.6 μmol/l, pH 8.5, 33% ethylene glycol, […] rFIXa",66.0%
same,Inhibition of the activity of factor IXa (in %),"rFIXa (human) [2]; inhibitor 163 μmol/l, pH 7.4, 4.1% ethanol, 0.57 μmol/l rFIXa",25.7%
same,Inhibition of the activity of factor IXa (in %),"rFIXa (human) [2]; inhibitor 163 μmol/l, pH 7.4, 33% ethylene glycol, 0.057 μmol/l rFIXa",28.9%
same,Inhibition of the activity of factor IXa (in %),"rFIXa (human) [2]; inhibitor 163 μmol/l, pH 8.5, 4.1% ethanol, […] rFIXa",48.8%
same,Inhibition of the activity of factor IXa (in %),"rFIXa (human) [2]; inhibitor 163 μmol/l, pH 8.5, 33% ethylene glycol, […] rFIXa",45.4%
CO [Methanol],V/V0,rFIXa (human) [1]; 8% additive,2.16
same,V/V0,rFIXa (human) [1]; 16% additive,3.46
same,V/V0,rFIXa (human) [1]; 25% additive,3.71
same,V/V0,rFIXa (human) [1]; 33% additive,2.83
same,V/V0,rFIXa (human) [1]; 41% additive,1.55
same,V/V0,rFIXa (human) [1]; 50% additive,0.588
same,stimulation of the activity of rFIXa,rFIXa (human) [1]; concentration range of 15-40%,5-15 fold
OCC(O)CO [Glycerol],V/V0,rFIXa (human) [1]; 8% additive,1.12
same,V/V0,rFIXa (human) [1]; 16% additive,1.64
same,V/V0,rFIXa (human) [1]; 25% additive,2.47
same,V/V0,rFIXa (human) [1]; 33% additive,3.38
same,V/V0,rFIXa (human) [1]; 41% additive,4.82
same,V/V0,rFIXa (human) [1]; 50% additive,5.91
same,effect on the activity of rFIXa (in words),rFIXa (human) [1],does not stimulate until higher concentrations (25-50%)
